The text below walks through data of patent US20240285642A1, “EGFR INHIBITOR FOR THE TREATMENT OF HEAD AND NECK CANCER” (NATCO PHARMA LIMITED, priority 2021, published 2024).

Series [1] deals with head and neck cancer cell line. The conditions noted are these: Parkinson et al 2007; cited from earlier work.
Series [2] concerns R/M HNSCC. The settings on record: cited from earlier work.
For series [3], the system named is recurrent squamous cell carcinoma of the head and neck. Put plainly: Phase I clinical study: tumour evaluation per RECIST 1.1. Type of series: in vivo, human. Here is the method:
A Phase I clinical study was conducted to evaluate the safety, pharmacokinetics and anti-tumour activity of NRC-2694-A (NRC-2694 dihydrochloride) in patients with recurrent squamous cell carcinoma of the head and neck.
An open label, prospective, non-randomized, multicentre, dose escalation study was performed. The starting dose selected for this study was 100 mg/day and the maximum dose received was 500 mg/day. Eligible subjects were housed in a unit of the hospital for 12 days, beyond which patients who tolerated the drug were treated on out-patient (ambulatory) basis.
Tumour Evaluation: Change in the size of evaluable tumour from base line was evaluated as per RECIST criteria (version 1.1).

Series [4] can be described thus: Phase I clinical study: safety, MTD and DLT. It is filed as in vivo. As for the experimental part:
An open label, prospective, non-randomized, multicentre, dose escalation study was performed. The starting dose selected for this study was 100 mg/day and the maximum dose received was 500 mg/day.
Safety: Assessments were performed within 7 days before administration of study medication and subsequently on Days 12, 18, 24, 30, 45, 60, 75 and 90. However, for assessing the DLT and MTD first 30 day safety data was considered.

Series [5] deals with recurrent and/or metastatic squamous cell carcinoma of the head and neck (R/M HNSCC). Briefly: Phase II randomized study: efficacy (PFS, ORR, RECIST 1.1). It is filed as in vivo, human. An excerpt: Primary objective: The primary objective was to evaluate the efficacy of NRC-2694-A in combination with platinum plus paclitaxel regimen compared to platinum plus paclitaxel regimen alone in terms of progression free survival (PFS) in patients with recurrent and/or metastatic squamous cell carcinoma of the head and neck (R/M HNSCC).
Secondary objectives: The secondary objective was (a) to compare the objective response rate in patients with R/M HNSCC treated with NRC-2694-A in combination with platinum plus paclitaxel regimen compared to platinum plus paclitaxel regimen alone and (b) to compare the safety and tolerability of the two regimens.
The study was an open-label, prospective, randomized, active controlled, multicentric phase-II study of NRC-2694-A in patients with histologically/cytologically confirmed HNSCC with radiological progression (recurrence and/or metastasis).
Patients between 18 and 65 years of age with life expectancy≥3 months having recurrent and/or metastatic disease for whom cisplatin/carboplatin plus paclitaxel regimen was planned were eligible for the study. Those who fit all the inclusion and exclusion criteria were randomized to receive either chemotherapy+NRC-2694-A (study drug arm) or chemotherapy alone (control arm). • Arm-I (study drug arm): NRC-2694-A+cisplatin/carboplatin and paclitaxel • Arm-II (control arm): cisplatin/carboplatin and paclitaxel
During the study, 300 mg NRC-2694-A was administered once daily in the morning with or without food with 240 ml of water. The dose of cisplatin was 100 mg/m^2 of body surface area as intravenous infusion over an hour. Alternatively, the dose of carboplatin was based on the target area under the curve (AUC) equivalent to 5 mg/mL/min, as an infusion over 1 hour. The choice of platinum compound was per the investigator's discretion and was dependent on the type of platinum received during prior therapy, avoiding repetition. Paclitaxel was given at a dose of 175 mg/m^2 of body surface area as an infusion over 3 hours. • Monotherapy: After completion of 6 cycles of chemotherapy in control arm or in study drug arm, patients received 300 mg of NRC-2694-A once daily as a monotherapy.

A short description of series [6]: Phase I clinical study: plasma pharmacokinetics (LC-MS/MS). Type of series: in vivo, human. The settings on record: 100 mg/day to 500 mg/day. As for the experimental part: Secondary: To evaluate the single and multiple dose pharmacokinetics and anti-tumour activity of NRC-2694-A. An open label, prospective, non-randomized, multicentre, dose escalation study was performed. The starting dose selected for this study was 100 mg/day and the maximum dose received was 500 mg/day. Eligible subjects were housed in a unit of the hospital for 12 days, beyond which patients who tolerated the drug were treated on out-patient (ambulatory) basis. Pharmacokinetic Evaluation: Estimation of NRC-2694 in plasma was done using a validated LC-MS/MS method. Based on the plasma concentration data, non-compartmental pharmacokinetic variables viz. area under the curve (AUC), peak plasma concentration (Cmax), time to peak plasma concentration (Tmax), and elimination rate constant, volume of distribution, half-life and clearance were calculated for single dose (on Day 1) as well as at steady state (on Day 12). Blood samples at pre-dose, 0.5, 1, 1.5, 2, 2.5, 3, 4, 6, 8, 12 and 24 hrs were collected in K2 EDTA prefilled vacutainers.

Setting [7] is: Stage-II monotherapy, among the 4 patients with partial response in Stage-I.

Where two headings read alike, the source gives them in different places.

On to `C#Cc1cccc(Nc2ncnc3cc(OC)c(OCCCN4CCOCC4)cc23)c1` [NRC-2694, (3-Ethynyl-phenyl)-[7-methoxy-6-(3-morpholin-4-yl-propoxy)-quinazolin-4-yl]-amine], for which the “inhibition of growth of a head and neck cancer cell line grafted into athymic female mice” value in series [1] was “low to moderate inhibition”.
As for “Pembrolizumab: approved monoclonal antibody, immunotherapy for R/M HNSCC”, the ORR in series [2] (Pembrolizumab alone, CPS>20 population) is on record as 26%; in series [2] (combination of Pembrolizumab and platinum-based chemotherapy), 36%.
Take `C#Cc1cccc(Nc2ncnc3cc(OC)c(OCCCN4CCOCC4)cc23)c1.Cl.Cl` [NRC-2694-A, N-(3-ethynylphenyl)-7-methoxy-6-(3-morpholinopropoxy) quinazolin-4-amine dihydrochloride]: the “Outcome (tumour evaluation)” value is on record as “Stable Disease” in series [3] (Subject No. 0202, Head and Neck, 120 days completed); “Stable Disease” in series [3] (Subject No. 0207, Head and Neck, 79 days completed); “Stable Disease” in series [3] (Subject No. 0211, Head and Neck, 120 days completed); “Partial Response” in series [3] (Subject No. 0212, Head and Neck, 120 days completed); “Stable Disease” in series [3] (Subject No. 0216, Head and Neck, 120 days completed). For the same compound, the “anti-tumour activity (effect on tumour size)” value in series [3] (patients with recurrent squamous cell carcinoma of the head and neck, oral once daily) is “tumour size reduction or tumour size stasis”. In addition, the safety profile result in series [4] (once daily administration, Phase I) is recorded as “tolerable safety profile”. Further, the “MTD (maximum tolerated dose)” value in series [4] (oral once daily, dose escalation 100 to 500 mg/day, first 30 day safety data) was 400 mg/day. Also, the “patients in whom complete response was maintained” value in series [5] (Stage-II monotherapy 300 mg once daily, Arm-I patients with complete response in Stage-I) came to 2 patients. The “patients continuing to have partial response” value in series [5] (setting [7]) is “one”. The “patients with progressive disease” value in series [5] (setting [7]) turned out to be 1 patients. Besides, in series [5] (setting [7]), the “patients with stable disease” value is listed as 2 patients. The “patients continuing to have progressive disease” value in series [5] (Stage-II monotherapy, patient with progressive disease in Stage-I) stood at 1 patients. Moreover, the “patients achieving complete response” value in series [5] (Stage-II monotherapy, patients from Arm-II with partial response and stable disease earlier) was found to be 2 patients. Further, the “patients continuing to have stable disease” value in series [5] (Stage-II monotherapy, patients with stable disease in Stage-I) is “Two”. Besides, the “plasma concentration versus dose” value in series [6] (Day-1 and Day-12 concentrations) is recorded as “dose dependent increase”. Moreover, the “relationship of pharmacokinetics to dose” value in series [6] (patients) is on record as “Dose proportional relationship”.
